Laboratory results reported in US10512634B2, “Benzimidazole derivates useful as inhibitors of mammalian histone deacetylase activity” (KANCERA AB, priority 2015, dated 2019).
Structures can show the parent of a compound that is named as a salt. Where two headings read alike, the source gives them in different places.

Experiments:
HDAC6 = HDAC6 (Homo sapiens (Human), UniProt Q9UBN7); assay: HDAC in vitro enzymatic assay (fluorescence); format: biochemical; settings: top concentration 2 μM
Method: Biological Tests Method for Measurement of Enzymatic Activity of HDACs Materials & Methods
All Examples were tested in HDAC1, 2, 3, 6 and 8 in vitro enzymatic assays. The assay principle is well known (Hauser et al. 2009, Bradner et al. 2010) and all necessary reagents like enzymes, substrates, developer and reference compounds are commercially available (see e.g. BPS Biosciences http://www.bpsbioscience.com/). A series of dilutions of the compounds were prepared with a top concentration of 200 μM (2 μM for HDAC6). The enzymatic reactions were conducted in a mixture containing assay buffer, bovine serum albumin, HDAC substrate, and a test compound. After enzymatic reaction, developer was added and after an additional incubation time, fluorescence intensity was measured at an excitation wavelength of 360 nm and an emission wavelength of 460 nm. A selection of the Examples were tested in a full HDAC panel containing HDAC1, 2, 3, 4, 5, 6, 7, 8, 9, 10 and 11 in vitro enzymatic assays. The tests were performed as above except that a series of dilutions of the compounds were prepared with a top concentration of 10 μM for all HDACs.

AMO-1 (plasmacytom) = assay: CellTiter-Blue cell viability assay; format: cell-based; settings: Homo sapiens, AMO1; AMO-1 cells, 72 hours of treatment; read-out: IC50 AMO-1 (cell viability)
Method: (§1) Method for Measurement of Cell Viability
(§2) The CellTiter-Blue® Cell Viability Assay (Promega) provides a homogeneous, fluorometric method for estimating the number of viable cells present in multi-well plates. The assay uses the indicator dye resazurin to measure the metabolic capacity of cells. Viable cells retain the ability to reduce resazurin into resorufin, which is highly fluorescent.
(§3) Stock solutions (10 mM in DMSO) of compounds were serially diluted 1:2 in 11 concentrations. 50 nL/well (10 mM compound stock in DMSO) was acoustically dispensed in 384-well assay plates with an acoustic dispenser (EDC Biosystems ATS-100AV). Final starting concentration in the assay was 20 μM (0.2% DMSO) for test compounds. […] After 72 hours, Celltiter Blue reagent (Promega #G8081) was diluted 1:10 with PBS and then added to wells (5 μL/well). The plates were incubated for 2 hours following addition of reagent. […] Results were calculated as % cell viability compared to background (cells treated with 0.2% DMSO).

[1] = tested on: PBMC (peripheral blood mononuclear cells from healthy donors); assay: CellTiter-Blue cell viability assay; format: cell-based; settings: healthy PBMC, 72 hours of treatment; read-out: IC50 healthy PBMC (cell viability)
Method: as §1, §2, §3

U266 (multiple myelom) = assay: CellTiter-Blue cell viability assay; format: cell-based; settings: Homo sapiens, U-266; U266 cells, 72 hours of treatment; read-out: IC50 U266 (cell viability)
Method: as §1, §2, §3

HDAC1 = HDAC1 (Homo sapiens (Human), UniProt Q13547); assay: HDAC in vitro enzymatic assay (fluorescence); settings: read-out: IC50 HDAC1; selectivity profiling; top concentration 200 μM
HDAC1, sequence (Q13547 whole entry): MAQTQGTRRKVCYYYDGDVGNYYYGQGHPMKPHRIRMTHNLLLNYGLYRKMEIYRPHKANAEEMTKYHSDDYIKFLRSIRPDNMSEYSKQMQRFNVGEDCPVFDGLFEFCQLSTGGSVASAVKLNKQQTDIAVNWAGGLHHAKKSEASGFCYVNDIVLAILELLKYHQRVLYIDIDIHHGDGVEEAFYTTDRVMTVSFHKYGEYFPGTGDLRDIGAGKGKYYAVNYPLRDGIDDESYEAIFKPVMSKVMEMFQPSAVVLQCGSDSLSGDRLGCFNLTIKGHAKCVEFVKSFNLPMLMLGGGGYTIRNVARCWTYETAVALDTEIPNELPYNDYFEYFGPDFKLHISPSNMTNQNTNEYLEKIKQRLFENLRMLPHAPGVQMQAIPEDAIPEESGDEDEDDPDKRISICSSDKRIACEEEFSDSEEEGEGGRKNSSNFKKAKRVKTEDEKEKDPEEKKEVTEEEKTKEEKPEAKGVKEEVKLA

HDAC2 = HDAC2 (Homo sapiens (Human), UniProt Q92769); assay: HDAC in vitro enzymatic assay (fluorescence); settings: read-out: IC50 HDAC2; selectivity profiling; top concentration 200 μM
HDAC2, sequence (Q92769 whole entry): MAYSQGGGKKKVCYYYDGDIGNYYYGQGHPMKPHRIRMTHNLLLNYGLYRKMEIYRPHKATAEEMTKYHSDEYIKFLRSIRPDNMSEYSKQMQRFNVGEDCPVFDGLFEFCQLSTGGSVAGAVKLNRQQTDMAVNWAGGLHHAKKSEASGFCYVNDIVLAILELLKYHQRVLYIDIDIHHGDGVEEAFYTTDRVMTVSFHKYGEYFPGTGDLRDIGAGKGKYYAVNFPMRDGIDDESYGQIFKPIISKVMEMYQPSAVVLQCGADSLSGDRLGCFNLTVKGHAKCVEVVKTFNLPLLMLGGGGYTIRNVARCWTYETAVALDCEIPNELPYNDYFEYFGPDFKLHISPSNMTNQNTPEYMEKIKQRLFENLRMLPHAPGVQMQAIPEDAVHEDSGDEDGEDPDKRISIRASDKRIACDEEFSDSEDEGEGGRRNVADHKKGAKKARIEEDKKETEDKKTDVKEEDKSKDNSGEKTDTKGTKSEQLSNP

HDAC3 = HDAC3 (Homo sapiens (Human), UniProt O15379); assay: HDAC in vitro enzymatic assay (fluorescence); settings: read-out: IC50 HDAC3; selectivity profiling; top concentration 200 μM
HDAC3, sequence (O15379 whole entry): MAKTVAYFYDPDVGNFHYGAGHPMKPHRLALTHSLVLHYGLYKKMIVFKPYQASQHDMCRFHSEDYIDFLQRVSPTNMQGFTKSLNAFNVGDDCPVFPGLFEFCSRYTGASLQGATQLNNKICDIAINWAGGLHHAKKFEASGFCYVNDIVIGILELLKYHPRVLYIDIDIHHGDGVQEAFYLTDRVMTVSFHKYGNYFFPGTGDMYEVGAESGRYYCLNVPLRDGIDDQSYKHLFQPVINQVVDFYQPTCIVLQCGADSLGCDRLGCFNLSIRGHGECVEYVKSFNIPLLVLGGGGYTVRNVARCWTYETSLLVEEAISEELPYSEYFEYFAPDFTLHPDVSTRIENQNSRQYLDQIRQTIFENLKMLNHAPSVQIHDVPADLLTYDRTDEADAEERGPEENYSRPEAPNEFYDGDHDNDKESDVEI
HDAC3, sequence (Q9Y618 395-489 partner): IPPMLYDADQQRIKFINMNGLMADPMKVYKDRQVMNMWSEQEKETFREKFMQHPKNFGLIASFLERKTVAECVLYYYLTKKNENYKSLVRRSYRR

HDAC8 = HDAC8 (Homo sapiens (Human), UniProt Q9BY41); assay: HDAC in vitro enzymatic assay (fluorescence); settings: read-out: IC50 HDAC8; selectivity profiling; top concentration 200 μM
HDAC8, sequence (Q9BY41 whole entry): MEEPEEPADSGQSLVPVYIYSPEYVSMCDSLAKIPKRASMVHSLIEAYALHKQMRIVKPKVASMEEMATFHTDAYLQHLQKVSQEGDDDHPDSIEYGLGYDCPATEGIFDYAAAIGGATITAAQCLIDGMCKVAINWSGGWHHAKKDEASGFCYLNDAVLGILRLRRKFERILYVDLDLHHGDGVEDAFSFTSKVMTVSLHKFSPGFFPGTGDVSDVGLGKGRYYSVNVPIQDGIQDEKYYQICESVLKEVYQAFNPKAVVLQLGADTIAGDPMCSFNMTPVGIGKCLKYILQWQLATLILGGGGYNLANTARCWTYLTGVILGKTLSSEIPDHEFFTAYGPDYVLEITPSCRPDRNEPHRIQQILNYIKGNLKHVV

[2] = read-out: IC50 values for inhibition of HDAC6
[3] = selectivity profiling, read-out: IC50 HDAC6

`O=C(NO)c1ccc2nc(-c3cccc(OCCOc4ccccc4)c3)[nH]c2c1` [Example 134, N-hydroxy-2-[3-(2-phenoxyethoxy)phenyl]-1H-benzimidazole-6-carboxamide] was tested, and the IC50 (HDAC6; [2]) was 18 nM.

In the case of `CCN(CC)CCOc1ccc(-c2nc3ccc(C(=O)NO)cc3[nH]2)cc1` [Example 125, 2-{4-[2-(diethylamino)ethoxy]phenyl}-N-hydroxy-1H-benzimidazole-6-carboxamide], the IC50 (HDAC6; [2]) is reported as 14 nM.

`Cn1c(-c2nc3ccc(C(=O)NO)cc3[nH]2)cc2ccccc21` [Example 112, N-hydroxy-2-(1-methyl-1H-indol-2-yl)-1H-benzimidazole-6-carboxamide] gave an IC50 (HDAC6; [2]) of 15 nM.

Work on `O=C(NO)c1ccc2nc(-c3ccc(-c4ccccc4)s3)[nH]c2c1` [Example 179, N-hydroxy-2-(5-phenylthiophen-2-yl)-1H-benzimidazole-6-carboxamide] yielded an IC50 (HDAC6; [2]) of 3.1 nM.

Compound `O=C(NO)c1ccc2nc(-c3ccc(-c4cccc(CN5CCCCC5)c4)cc3)[nH]c2c1` [Example 186, N-hydroxy-2-[3′-(piperidin-1-ylmethyl)biphenyl-4-yl]-1H-benzimidazole-6-carboxamide trifluoroacetate] has an IC50 (HDAC6; [2]) of 4.1 nM.

`O=C(NO)c1ccc2nc(-c3ccc(-c4ccccc4)c(F)c3)[nH]c2c1` [Example 180, 2-(2-fluorobiphenyl-4-yl)-N-hydroxy-1H-benzimidazole-6-carboxamide] was tested, and the IC50 (AMO-1 (plasmacytom)) was 420 nM, the IC50 [1] was greater than 20000 nM and the IC50 (U266 (multiple myelom)) was 560 nM.

Compound `CN1CCN(Cc2ccc(-c3nc4ccc(C(=O)NO)cc4[nH]3)cc2)CC1` [Example 207, N-hydroxy-2-{4-[(4-methylpiperazin-1-yl)methyl]phenyl}-1H-benzimidazole-6-carboxamide] has an IC50 (HDAC6; [3]) of 7 nM, an IC50 (HDAC6; [2]) of 7 nM and an IC50 (HDAC1) of 700 nM. It also gave an IC50 (HDAC2) of 7800 nM, an IC50 (HDAC3) of 250 nM and an IC50 (HDAC8) of 1800 nM.

With `O=C(NO)c1ccc2nc(-c3ccc(-c4ccc(CN5CCCC5)cc4)cc3)[nH]c2c1` [Example 197, N-hydroxy-2-[4′-(pyrrolidin-1-ylmethyl)biphenyl-4-yl]-1H-benzimidazole-6-carboxamide trifluoroacetate] the IC50 (HDAC6; [2]) was 3.6 nM.

With `O=C(NO)c1ccc2nc(-c3ccccc3-c3ccccc3)[nH]c2c1` [Example 119, 2-biphenyl-2-yl-N-hydroxy-1H-benzimidazole-6-carboxamide] the IC50 (HDAC6; [3]) was 14 nM, the IC50 (HDAC6; [2]) was 14 nM and the IC50 (HDAC1) was 4000 nM. The IC50 (HDAC2) was 29000 nM, the IC50 (HDAC3) was 2800 nM and the IC50 (HDAC8) was 710 nM.

`COc1c(C)cc(-c2nc3cc(C(=O)NO)ccc3n2C)cc1C` [Example 228, N-hydroxy-2-(4-methoxy-3,5-dimethylphenyl)-1-methyl-1H-benzimidazole-5-carboxamide] gave an IC50 (HDAC6; [3]) of 3.5 nM, an IC50 (HDAC6; [2]) of 3.5 nM and an IC50 (HDAC1) of 2000 nM. It also gave an IC50 (HDAC2) of 20000 nM, an IC50 (HDAC3) of 216 nM and an IC50 (HDAC8) of 100 nM.

Work on `COCCCNCc1ccc(-c2ccc(-c3nc4ccc(C(=O)NO)cc4[nH]3)cc2)cc1` [Example 191, N-hydroxy-2-(4′-{[(3-methoxypropyl)amino]methyl}biphenyl-4-yl)-1H-benzimidazole-6-carboxamide trifluoroacetate] yielded an IC50 (HDAC6; [2]) of 18 nM.

`O=C(NO)c1ccc2nc(-c3ccc(-c4ccccc4F)s3)[nH]c2c1` [Example 176, 2-[5-(2-fluorophenyl)thiophen-2-yl]-N-hydroxy-1H-benzimidazole-6-carboxamide] gave an IC50 (HDAC6; [2]) of 2.9 nM.

For `COc1cccc(-c2nc3ccc(C(=O)NO)cc3[nH]2)c1O` [Example 85, N-hydroxy-2-(2-hydroxy-3-methoxyphenyl)-1H-benzimidazole-6-carboxamide], the IC50 (HDAC6; [2]) was 13 nM.

`C#Cc1ccc(-c2nc3ccc(C(=O)NO)cc3[nH]2)cc1` [Example 80, 2-(4-ethynylphenyl)-N-hydroxy-1H-benzimidazole-6-carboxamide] was tested, and the IC50 (HDAC6; [2]) was 19 nM.

Work on `O=C(NO)c1ccc2nc(-c3ccc4c(c3)OCCO4)[nH]c2c1` [Example 11, 2-(2,3-dihydro-1,4-benzodioxin-6-yl)-N-hydroxy-1H-benzimidazole-6-carboxamide] yielded an IC50 (HDAC6; [2]) of 110 nM.

`CC(C)Oc1ccc(-c2nc3ccc(C(=O)NO)cc3[nH]2)cc1` [Example 97, N-hydroxy-2-[4-(1-methylethoxy)phenyl]-1H-benzimidazole-6-carboxamide] gave an IC50 (HDAC6; [3]) of 12 nM, an IC50 (HDAC6; [2]) of 12 nM and an IC50 (HDAC1) of 5700 nM. The IC50 (HDAC2) was 33000 nM, the IC50 (HDAC3) was 2400 nM and the IC50 (HDAC8) was 260 nM.

For `O=C(NO)c1ccc2nc(-c3ccc4c(c3)CCO4)[nH]c2c1` [Example 96, 2-(2,3-dihydro-1-benzofuran-5-yl)-N-hydroxy-1H-benzimidazole-6-carboxamide], the IC50 (HDAC6; [3]) was 5.2 nM, the IC50 (HDAC6; [2]) was 5.2 nM and the IC50 (HDAC1) was 5000 nM. The IC50 (HDAC2) was 58000 nM, the IC50 (HDAC3) was 1300 nM and the IC50 (HDAC8) was 220 nM.

`O=C(NO)c1ccc2nc(-c3ccc(-c4ccccc4F)cc3)[nH]c2c1` [Example 167, 2-(2′-fluorobiphenyl-4-yl)-N-hydroxy-1H-benzimidazole-6-carboxamide] showed an IC50 (HDAC6; [2]) of 19 nM, an IC50 (AMO-1 (plasmacytom)) of 140 nM and an IC50 [1] greater than 20000 nM. The IC50 (U266 (multiple myelom)) was 160 nM.

Work on `COc1ccc(Oc2cccc(-c3nc4ccc(C(=O)NO)cc4[nH]3)c2)cc1` [Example 113, N-hydroxy-2-[3-(4-methoxyphenoxy)phenyl]-1H-benzimidazole-6-carboxamide] yielded an IC50 (HDAC6; [2]) of 6.6 nM.

In the case of `C[C@@H]1CN(Cc2ccc(-c3ccc(-c4nc5ccc(C(=O)NO)cc5[nH]4)cc3)cc2)C[C@H](C)O1` [Example 201, 2-(4′-{cis)-2,6-dimethylmorpholin-4-yl]methyl}biphenyl-4-yl)-N-hydroxy-1H-benzimidazole-6-carboxamide trifluoroacetate], the IC50 (HDAC6; [2]) is reported as 13 nM.

Compound `O=C(NO)c1ccc2nc(-c3ccnc4ccccc34)[nH]c2c1` [Example 66, N-hydroxy-2-quinolin-4-yl-1H-benzimidazole-6-carboxamide trifluoroacetate] has an IC50 (HDAC6; [2]) of 14 nM.

With `CCc1ccc(-c2nc3ccc(C(=O)NO)cc3[nH]2)cc1` [Example 109, 2-(4-ethylphenyl)-N-hydroxy-1H-benzimidazole-6-carboxamide] the IC50 (HDAC6; [3]) was 46 nM, the IC50 (HDAC6; [2]) was 46 nM and the IC50 (HDAC1) was 6500 nM. The IC50 (HDAC2) was 165000 nM, the IC50 (HDAC3) was 2200 nM and the IC50 (HDAC8) was 1200 nM.

Work on `O=C(NO)c1ccc2nc(-c3cccs3)[nH]c2c1` [Example 98, N-hydroxy-2-thiophen-2-yl-1H-benzimidazole-6-carboxamide] yielded an IC50 (HDAC6; [3]) of 7 nM, an IC50 (HDAC6; [2]) of 7 nM and an IC50 (HDAC1) of 4400 nM. For the same compound, the IC50 (HDAC2) was 24000 nM, the IC50 (HDAC3) was 1900 nM and the IC50 (HDAC8) was 290 nM.

For `CS(=O)(=O)Nc1ccc(-c2ccc(-c3nc4ccc(C(=O)NO)cc4[nH]3)cc2)cc1` [Example 204, N-hydroxy-2-{4′-[(methylsulfonyl)amino]biphenyl-4-yl}-1H-benzimidazole-6-carboxamide], the IC50 (HDAC6; [2]) was 7.2 nM.

`O=C(NO)c1ccc2nc(-c3ccc(-c4ccc(/C=N/O)cc4)cc3)[nH]c2c1` [Example 193, N-hydroxy-2-{4′-[(E)-(hydroxyimino)methyl]biphenyl-4-yl}-1H-benzimidazole-6-carboxamide] was tested, and the IC50 (HDAC6; [2]) was 11 nM.

`CN(C)C(=O)c1cccc(-c2ccc(-c3nc4ccc(C(=O)NO)cc4[nH]3)cc2)c1` [Example 195, 2-[3′-(dimethylcarbamoyl)biphenyl-4-yl]-N-hydroxy-1H-benzimidazole-6-carboxamide] gave an IC50 (HDAC6; [2]) of 24 nM.

`COc1ccc(-c2ccc(-c3nc4ccc(C(=O)NO)cc4[nH]3)o2)cc1OC` [Example 174, 2-[5-(3,4-dimethoxyphenyl)furan-2-yl]-N-hydroxy-1H-benzimidazole-6-carboxamide] was tested, and the IC50 (HDAC6; [2]) was 4.7 nM.
